# Experiment: Solubility of cyclooctasulfur, cyclododecasulfur and crystalline polymeric sulfur in carbon disulfide, chlorobenzene and para-xylene (supernatant sulfur content by Uniquant)
# Assay type: physicochemical
# Method: Samples were also analyzed using X-ray fluorescence and the UniQuant software package. UniQuant (UQ) is an x-ray fluorescence (XRF) analysis tool that affords standardless XRF analysis of samples. Samples can then be semi-quantitatively analyzed for up to 72 elements beginning with row three in the periodic table (i.e. Na to higher Z). The data are mathematically corrected for matrix differences between calibration standards and samples as well as absorption and enhancement effects; i.e. inter-element effects. Some factors that can affect the quality of results include granularity in the sample (leading to shadow effects), mineralogical effects (due to sample inhomogeneity), insufficient sample size, and lack of knowledge of the sample matrix. In cases where a sample was amenable to both, the XRF UQ analysis and the ICP-OES (i.e. quantitative) analysis generally agree within +/−10%. Samples were analyzed for Zn, Br, Cl, and S content by UQ.
# Fifty grams of p-xylene was added to each of three identical 100-milliliter jacketed glass vessels fitted with a circulating heating bath, cooling water condenser, magnetic stir bar and stir plate, and nitrogen purge. All vessels were heated to the desired temperature, and cyclooctasulfur, cyclododecasulfur (prepared as in Example 2), and unoiled commercial crystalline polymeric sulfur (Crystex™) was added in sufficient quantities to each of the glass vessels to allow undissolved solids to remain after dissolution and equilibration of the mixture. The equilibration period typically lasted 2 to 8 hours, during which the contents of the vessel were maintained at the desired temperature and stirred continuously. Upon equilibration, supernatant liquid was withdrawn from the vessels via a heated fritted glass pipette (heated to the same temperature as the solution). The supernatants were analyzed by Uniquant to determine sulfur content, indicating the solubility of the sulfur species at the vessel temperature. Similar experiments were conducted for carbon disulfide and chlorobenzene for each of the three solutes.
SMILES,"Solubility relative to cyclododecasulfur (in p-xylene, chlorobenzene and CS2, depending on temperature) [times]","Solubility in weight % of solute in solvent (solvent CS2, 22 °C) [wt %]","Solubility in weight % of solute in solvent (solvent CS2, 45 °C) [wt %]","Solubility in weight % of solute in solvent (solvent chlorobenzene, 22 °C) [wt %]","Solubility in weight % of solute in solvent (solvent chlorobenzene, 45 °C) [wt %]","Solubility in weight % of solute in solvent (solvent chlorobenzene, 115 °C) [wt %]","Solubility in weight % of solute in solvent (solvent p-xylene, 22 °C) [wt %]","Solubility in weight % of solute in solvent (solvent p-xylene, 45 °C) [wt %]","Solubility in weight % of solute in solvent (solvent p-xylene, 115 °C) [wt %]","Solubility relative to polymeric sulfur (in p-xylene, chlorobenzene and CS2)"
"S1SSSSSSS1 [Cyclooctasulfur, cyclooctasulfur]",30 to 200,32,48,2.4,6.2,21.7,2.3,5.6,18.7,–
"S1SSSSSSSSSSS1 [Cyclododecasulfur, cyclododecasulfur]",–,0.2,0.5,–,0.015,0.44,–,<0.05,0.4,at least an order of magnitude more soluble

# From patent publication US10000380B2, “Method for the manufacture of polymeric sulfur” (EASTMAN CHEMICAL COMPANY, priority 2016, dated 2018)
